Experimental data taken from the supplement of paper PMC11061612.

Columns and labels:
Assay in all cases: Bliss excess, mean over the matrix (fraction); higher = more synergy
[1] = tested on: G-402 (Other Solid Carcinomas)
Summary of the method: (§1)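 Cell lines grown in DMEM/F12 or RPMI with 10% FBS were plated in 1536-well plates and held 24 hours at 37°C, 5% CO2 before 72 hours of exposure to two-drug dose matrices, with DMSO typically at 0.2%. CellTiter-Glo 2.0 luminescence gave viability, which was converted to inhibition. Vehicle wells were set to 0 and blank wells to 1. Combination Emax is the second-highest inhibition in the matrix, and Bliss excess is the observed combination effect minus the expected EA + EB − EA·EB, where EA and EB are the single-agent effects.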

[2] = tested on: GCT (Other Solid Carcinomas)
Summary of the method: as §1

[3] = tested on: NCI-H716 (Colorectal Carcinoma)
Summary of the method: as §1

[4] = tested on: Jurkat (T-Lymphoblastic Leukemia)
Summary of the method: as §1

[5] = tested on: ESO26 (Esophageal Adenocarcinoma)
Summary of the method: as §1

[6] = tested on: EPLC-272H (Other Solid Carcinomas)
Summary of the method: as §1

[7] = tested on: CA46 (Burkitt's Lymphoma)
Summary of the method: as §1

[8] = tested on: OACp4C (Esophageal Adenocarcinoma)
Summary of the method: as §1

[9] = tested on: JVM-2 (B-Cell Non-Hodgkin's Lymphoma)
Summary of the method: as §1

[10] = tested on: CAL-27 (Oral Cavity Carcinoma)
Summary of the method: as §1

[11] = tested on: NB13 (Neuroblastoma)
Summary of the method: as §1

[12] = tested on: RH-41 (Rhabdomyosarcoma)
Summary of the method: as §1

[13] = tested on: LS-411N (Colorectal Carcinoma)
Summary of the method: as §1

[14] = tested on: KYSE-140 (Esophageal Squamous Cell Carcinoma)
Summary of the method: as §1

[15] = tested on: HT55 (Colorectal Carcinoma)
Summary of the method: as §1

[16] = tested on: CESS (Acute Myeloid Leukemia)
Summary of the method: as §1

[17] = tested on: JIMT-1 (Breast Carcinoma)
Summary of the method: as §1

[18] = tested on: DU-4475 (Breast Carcinoma)
Summary of the method: as §1

[19] = tested on: AU565 (Breast Carcinoma)
Summary of the method: as §1

[20] = tested on: COLO-792 (Melanoma)
Summary of the method: as §1

SMILES | Bliss excess [1] | Bliss excess [2] | Bliss excess [3] | Bliss excess [4] | Bliss excess [5] | Bliss excess [6] | Bliss excess [7] | Bliss excess [8] | Bliss excess [9] | Bliss excess [10] | Bliss excess [11] | Bliss excess [12] | Bliss excess [13] | Bliss excess [14] | Bliss excess [15] | Bliss excess [16] | Bliss excess [17] | Bliss excess [18] | Bliss excess [19] | Bliss excess [20]
CN(CCO)CC[C@H](CSc1ccccc1)Nc1ccc(S(=O)(=O)NC(=O)c2ccc(N3CCC([C@@H](O)c4ccccc4-c4ccc(Cl)cc4)CC3)cc2)cc1S(=O)(=O)C(F)(F)F [AZD4320] + Cc1cc2ncnn2cc1Nc1ncc2c(n1)n(C1CCOCC1)c(=O)n2C [AZD7648] (first compound max 1 µM, 7x7, partner max 10 µM) | -0.0144 | -0.0504 | -0.0253 | 0.0134 | -0.0208 | -0.0318 | -0.0061 | 0.0447 | -0.0111 | -0.0355 | -0.0223 | 0.0309 | -0.0132 | -0.0866 | -0.0404 | -0.0106 | -0.0513 | 0.0627 | -0.0132 | 0.0951
C[C@@H](c1ccc2nccn2c1)n1nnc2ncc(-c3cnn(C)c3)nc21 [Savolitinib] + CC1(C)CCC(CN2CCN(c3ccc(C(=O)NS(=O)(=O)c4ccc(NCC5CCOCC5)c([N+](=O)[O-])c4)c(Oc4cnc5[nH]ccc5c4)c3)CC2)=C(c2ccc(Cl)cc2)C1 [Venetoclax] (first compound max 1 µM, 7x7, partner max 1 µM) | -0.067 | -0.0727 | -0.0423 | -0.0723 | -0.0547 | -0.0604 | -0.0366 | -0.0367 | -0.0472 | -0.0571 | -0.073 | -0.0483 | -0.0349 | -0.0257 | -0.0562 | -0.0517 | -0.0354 | -0.0533 | -0.0255 | -0.0601
